Converted amounts (≈) assume the structure as drawn.
Assays:
Format in all cases: functional
Candida albicans [1] = assay: Antifungal activity against Candida albicans MTCC 183 after 48 hr by agar streak dilution method; conditions: MTCC 183, 48 h
Aspergillus niger [2] = assay: Antifungal activity against Aspergillus niger MTCC 282 after 48 hr by agar streak dilution method; conditions: MTCC 282, 48 h
Candida albicans [3] = assay: Antifungal activity against Candida albicans MTCC 183 after 24 hr by paper disk diffusion method; further: test concentration or dose not given here
Aspergillus niger [4] = assay: Antifungal activity against Aspergillus niger MTCC 282 after 24 hr by paper disk diffusion method; further: test concentration or dose not given here
Shigella flexneri [5] = assay: Antibacterial activity against Shigella flexneri MTCC 1457 after 24 hr by agar streak dilution method; conditions: MTCC 1457, 24 h
Proteus vulgaris [6] = assay: Antibacterial activity against Proteus vulgaris MTCC 1771 after 24 hr by agar streak dilution method; conditions: MTCC 1771, 24 h
Salmonella typhi [7] = assay: Antibacterial activity against Salmonella enterica subsp. enterica serovar Typhi MTCC 733 after 24 hr by agar streak dilution method; conditions: MTCC 733, 24 h
Klebsiella pneumoniae [8] = assay: Antibacterial activity against Klebsiella pneumoniae MTCC 109 after 24 hr by agar streak dilution method; conditions: MTCC 109, 24 h
Pseudomonas aeruginosa [9] = assay: Antibacterial activity against Pseudomonas aeruginosa MTCC 741 after 24 hr by agar streak dilution method; conditions: MTCC 741, 24 h
Escherichia coli [10] = assay: Antibacterial activity against Escherichia coli MTCC 739 after 24 hr by agar streak dilution method; conditions: MTCC 739, 24 h
Bacillus cereus [11] = assay: Antibacterial activity against Bacillus cereus MTCC 619 after 24 hr by agar streak dilution method; conditions: MTCC 619, 24 h
Staphylococcus aureus [12] = assay: Antibacterial activity against Staphylococcus aureus MTCC 96 after 24 hr by agar streak dilution method; conditions: MTCC 96, 24 h
Shigella flexneri [13] = assay: Antibacterial activity against Shigella flexneri MTCC 1457 after 24 hr by paper disk diffusion method
Proteus vulgaris [14] = assay: Antibacterial activity against Proteus vulgaris MTCC 1771 after 24 hr by paper disk diffusion method; further: test concentration or dose not given here
Salmonella typhi [15] = assay: Antibacterial activity against Salmonella enterica subsp. enterica serovar Typhi MTCC 733 after 24 hr by paper disk diffusion method
Pseudomonas aeruginosa [16] = assay: Antibacterial activity against Pseudomonas aeruginosa MTCC 741 after 24 hr by paper disk diffusion method
Escherichia coli [17] = assay: Antibacterial activity against Escherichia coli MTCC 739 after 24 hr by paper disk diffusion method
Bacillus cereus [18] = assay: Antibacterial activity against Bacillus cereus MTCC 619 after 24 hr by paper disk diffusion method; further: test concentration or dose not given here
Staphylococcus aureus [19] = assay: Antibacterial activity against Staphylococcus aureus MTCC 96 after 24 hr by paper disk diffusion method
Klebsiella pneumoniae [20] = assay: Antibacterial activity against Klebsiella pneumoniae MTCC 109 after 24 hr by paper disk diffusion method

| SMILES | MIC (Candida albicans [1]) | MIC (Aspergillus niger [2]) | inhibition zone (IZ) (Candida albicans [3]) | inhibition zone (IZ) (Aspergillus niger [4]) | MIC (Shigella flexneri [5]) | MIC (Proteus vulgaris [6]) | MIC (Salmonella typhi [7]) | MIC (Klebsiella pneumoniae [8]) | MIC (Pseudomonas aeruginosa [9]) | MIC (Escherichia coli [10]) | MIC (Bacillus cereus [11]) | MIC (Staphylococcus aureus [12]) | inhibition zone (IZ) (Shigella flexneri [13]) | inhibition zone (IZ) (Proteus vulgaris [14]) | inhibition zone (IZ) (Salmonella typhi [15]) | inhibition zone (IZ) (Pseudomonas aeruginosa [16]) | inhibition zone (IZ) (Escherichia coli [17]) | inhibition zone (IZ) (Bacillus cereus [18]) | inhibition zone (IZ) (Staphylococcus aureus [19]) | inhibition zone (IZ) (Klebsiella pneumoniae [20]) |
| --- | --- | --- | --- | --- | --- | --- | --- | --- | --- | --- | --- | --- | --- | --- | --- | --- | --- | --- | --- | --- |
| Cn1c(=O)cc(Oc2nc(NCC(=O)O)nc(Nc3ccc(C#N)cc3)n2)c2ccccc21 | > 50 µg/mL | 50 µg/mL (≈ 113 µM) | <5 mm | 7 mm | 50 µg/mL (≈ 113 µM) | 25 µg/mL (≈ 56.4 µM) | 50 µg/mL (≈ 113 µM) | 50 µg/mL (≈ 113 µM) | 50 µg/mL (≈ 113 µM) | 50 µg/mL (≈ 113 µM) | 50 µg/mL (≈ 113 µM) | 50 µg/mL (≈ 113 µM) | 9 mm | 13 mm | 8 mm | 8 mm | <5 mm | 7 mm | <5 mm |  |
| CCOC(=O)CNc1nc(Nc2ccc(C#N)cc2)nc(Oc2cc(=O)n(C)c3ccccc23)n1 | > 50 µg/mL | 50 µg/mL (≈ 106 µM) | <5 mm | 9 mm | 50 µg/mL (≈ 106 µM) | 12.5 µg/mL (≈ 26.5 µM) | 50 µg/mL (≈ 106 µM) | 50 µg/mL (≈ 106 µM) | 50 µg/mL (≈ 106 µM) | 50 µg/mL (≈ 106 µM) | 50 µg/mL (≈ 106 µM) | 50 µg/mL (≈ 106 µM) | 11 mm | 15 mm | 8 mm | <5 mm | 7 mm | 9 mm | 6 mm |  |
| CC(C)Nc1nc(Nc2ccc(C#N)cc2)nc(Oc2cc(=O)n(C)c3ccccc23)n1 | 50 µg/mL (≈ 117 µM) | 50 µg/mL (≈ 117 µM) | 7 mm | 8 mm | 50 µg/mL (≈ 117 µM) | 50 µg/mL (≈ 117 µM) | 50 µg/mL (≈ 117 µM) | 50 µg/mL (≈ 117 µM) | 50 µg/mL (≈ 117 µM) | 50 µg/mL (≈ 117 µM) | 25 µg/mL (≈ 58.5 µM) | 50 µg/mL (≈ 117 µM) | 8 mm | 8 mm | 6 mm | <5 mm | 9 mm | 13 mm | 8 mm |  |
| Cn1c(=O)cc(Oc2nc(Nc3ccc(C#N)cc3)nc(NC3CC3)n2)c2ccccc21 | 50 µg/mL (≈ 118 µM) | 50 µg/mL (≈ 118 µM) | 8 mm | 10 mm | 50 µg/mL (≈ 118 µM) | 50 µg/mL (≈ 118 µM) | 50 µg/mL (≈ 118 µM) | 25 µg/mL (≈ 58.8 µM) | 50 µg/mL (≈ 118 µM) | 50 µg/mL (≈ 118 µM) | 25 µg/mL (≈ 58.8 µM) | 50 µg/mL (≈ 118 µM) | <5 mm | 8 mm | <5 mm | 6 mm | 7 mm | 11 mm | <5 mm | 11 mm |
| CCCCNc1nc(Nc2ccc(C#N)cc2)nc(Oc2cc(=O)n(C)c3ccccc23)n1 | 50 µg/mL (≈ 113 µM) | > 50 µg/mL | 6 mm | <5 mm | 50 µg/mL (≈ 113 µM) | 50 µg/mL (≈ 113 µM) | 50 µg/mL (≈ 113 µM) | 50 µg/mL (≈ 113 µM) | 25 µg/mL (≈ 56.6 µM) | 50 µg/mL (≈ 113 µM) | 50 µg/mL (≈ 113 µM) | 50 µg/mL (≈ 113 µM) | 7 mm | <5 mm | 6 mm | 11 mm | <5 mm | 8 mm | 12 mm |  |
| Cn1c(=O)cc(Oc2nc(Nc3ccc(C#N)cc3)nc(NC3CCCCC3)n2)c2ccccc21 | 50 µg/mL (≈ 107 µM) | 50 µg/mL (≈ 107 µM) | 10 mm | 9 mm | 50 µg/mL (≈ 107 µM) | 50 µg/mL (≈ 107 µM) | 50 µg/mL (≈ 107 µM) | 12.5 µg/mL (≈ 26.7 µM) | 50 µg/mL (≈ 107 µM) | 50 µg/mL (≈ 107 µM) | 50 µg/mL (≈ 107 µM) | 6.25 µg/mL (≈ 13.4 µM) | 9 mm | 7 mm | <5 mm | <5 mm | 8 mm | 10 mm | 14 mm | 13 mm |
| Cn1c(=O)cc(Oc2nc(NCCCl)nc(Nc3ccc(C#N)cc3)n2)c2ccccc21 | 50 µg/mL (≈ 112 µM) | 50 µg/mL (≈ 112 µM) | 9 mm | 8 mm | 50 µg/mL (≈ 112 µM) | 50 µg/mL (≈ 112 µM) | 25 µg/mL (≈ 55.8 µM) | 50 µg/mL (≈ 112 µM) | 50 µg/mL (≈ 112 µM) | 25 µg/mL (≈ 55.8 µM) | 50 µg/mL (≈ 112 µM) | 25 µg/mL (≈ 55.8 µM) | <5 mm | 8 mm | 13 mm | 7 mm | 15 mm | 11 mm | 12 mm |  |
| Cn1c(=O)cc(Oc2nc(NCCO)nc(Nc3ccc(C#N)cc3)n2)c2ccccc21 | > 50 µg/mL | > 50 µg/mL | <5 mm | <5 mm | 50 µg/mL (≈ 116 µM) | 50 µg/mL (≈ 116 µM) | 50 µg/mL (≈ 116 µM) | 50 µg/mL (≈ 116 µM) | 50 µg/mL (≈ 116 µM) | 50 µg/mL (≈ 116 µM) | 50 µg/mL (≈ 116 µM) | 50 µg/mL (≈ 116 µM) | 7 mm | 7 mm | 9 mm | 9 mm | <5 mm | <5 mm | <5 mm |  |
| COc1ccc2[nH]cc(CCNc3nc(Nc4ccc(C#N)cc4)nc(Oc4cc(=O)n(C)c5ccccc45)n3)c2c1 | 25 µg/mL (≈ 44.8 µM) | 25 µg/mL (≈ 44.8 µM) | 15 mm | 12 mm | 50 µg/mL (≈ 89.5 µM) | 50 µg/mL (≈ 89.5 µM) | 50 µg/mL (≈ 89.5 µM) | 50 µg/mL (≈ 89.5 µM) | 50 µg/mL (≈ 89.5 µM) | 50 µg/mL (≈ 89.5 µM) | 25 µg/mL (≈ 44.8 µM) | 6.25 µg/mL (≈ 11.2 µM) | 12 mm | 6 mm | <5 mm | 9 mm | 9 mm | 13 mm | 15 mm | 10 mm |
| CNc1nc(Nc2ccc(C#N)cc2)nc(Oc2cc(=O)n(C)c3ccccc23)n1 | > 50 µg/mL | > 50 µg/mL | <5 mm | <5 mm | 50 µg/mL (≈ 125 µM) | 50 µg/mL (≈ 125 µM) | 50 µg/mL (≈ 125 µM) | 50 µg/mL (≈ 125 µM) | 6.25 µg/mL (≈ 15.6 µM) | 50 µg/mL (≈ 125 µM) | 50 µg/mL (≈ 125 µM) | 50 µg/mL (≈ 125 µM) | 8 mm | 8 mm | <5 mm | 14 mm | <5 mm | 7 mm | 11 mm |  |
| CN(C)c1nc(Nc2ccc(C#N)cc2)nc(Oc2cc(=O)n(C)c3ccccc23)n1 | > 50 µg/mL | > 50 µg/mL | <5 mm | <5 mm | 50 µg/mL (≈ 121 µM) | 50 µg/mL (≈ 121 µM) | 50 µg/mL (≈ 121 µM) | 50 µg/mL (≈ 121 µM) | 50 µg/mL (≈ 121 µM) | 50 µg/mL (≈ 121 µM) | 12.5 µg/mL (≈ 30.2 µM) | 50 µg/mL (≈ 121 µM) | <5 mm | 9 mm | 7 mm | 8 mm | 10 mm | 14 mm | 12 mm |  |
| CCNc1nc(Nc2ccc(C#N)cc2)nc(Oc2cc(=O)n(C)c3ccccc23)n1 | > 50 µg/mL | > 50 µg/mL | <5 mm | <5 mm | 50 µg/mL (≈ 121 µM) | 50 µg/mL (≈ 121 µM) | 50 µg/mL (≈ 121 µM) | 50 µg/mL (≈ 121 µM) | 12.5 µg/mL (≈ 30.2 µM) | 50 µg/mL (≈ 121 µM) | 50 µg/mL (≈ 121 µM) | 50 µg/mL (≈ 121 µM) | 7 mm | <5 mm | 9 mm | 12 mm | 8 mm | <5 mm | 10 mm |  |
| CCN(CC)c1nc(Nc2ccc(C#N)cc2)nc(Oc2cc(=O)n(C)c3ccccc23)n1 | 50 µg/mL (≈ 113 µM) | 50 µg/mL (≈ 113 µM) | 9 mm | 9 mm | 50 µg/mL (≈ 113 µM) | 50 µg/mL (≈ 113 µM) | 50 µg/mL (≈ 113 µM) | 50 µg/mL (≈ 113 µM) | 50 µg/mL (≈ 113 µM) | 50 µg/mL (≈ 113 µM) | 12.5 µg/mL (≈ 28.3 µM) | 25 µg/mL (≈ 56.6 µM) | 10 mm | <5 mm | 10 mm | 10 mm | 11 mm | 16 mm | 13 mm |  |

Reference: ChEMBL document CHEMBL3046451, “Design, synthesis, characterization, and in vitro antimicrobial action of novel trisubstituted s-triazines” (2012)
